{"source": "paper PMC6160999", "about": "“Pharmacokinetics, Tissue Distribution and Excretion of a Novel Diuretic (PU-48) in Rats” (Pharmaceutics, 2018)", "key": {"[1]": {"design": "method as in PMID 24055006, PMID 23728001, PMID 9124305, PMID 2671740", "settings": "cited from earlier work"}, "[2]": {"assay": "Urine and feces excretion after single oral PU-48 SNEDDS", "assay_type": "in vivo", "settings": "rat, oral PU-48 SNEDDS 12 mg/kg"}, "plasma protein": {"test_system": "plasma protein", "assay": "Plasma protein binding by equilibrium dialysis, rat plasma", "assay_type": "in vitro ADME", "settings": "for Concentration in Buffer (post-dialysis) / Concentration in Plasma (post-dialysis) / Protein-Binding Ratio: rat plasma, n=5; for Concentration in Buffer (post-dialysis) / Concentration in Plasma (post-dialysis): 37 °C 24 h", "experimental": "The concentration of PU-48 prototype in biological sample (feces and plasma protein binding analysis) was determined using a validated high-performance liquid chromatographic (HPLC) method our preliminary experiment (See Supplementary Materials HPLC Analysis and Method Validation). Briefly, the quantitative analysis of PU-48 was performed using a HPLC consistent of model 510 pump with a model 2487 ultraviolet detector, a model Rheodyne 7725 injector, and a column oven. The analytical conditions were as follows—The detection wavelength—293 nm; analytical column—a reversed-phase Acclaim C18 (4.6 mm × 250 mm, 5.0 µm, Dionex, Sunnyvale, CA, USA); column temperature—25 °C; mobile phase—acetonitrile—distilled water at a ratio of 60:40 (v/v); flow rate—1 mL/min. In this study, the methods for the feces samples were evaluated for specificity, linearity, precision, accuracy, and recovery (See Supplementary Materials Tables S4–S6).\nThe binding ratio of PU-48 to plasma protein was determined by equilibrium dialysis. A volume of 1 mL of plasma with PU-48 (0.25, 1 and 4 µg/mL) was added to a semi-permeable membrane bag (plasma chamber), the bag was place into the other clean tube with 9 mL PBS (buffer chamber). The equilibrium dialysis was performed at 37 °C for 24 h. At the end of dialysis, 500 μL each of post-dialysis samples from the plasma and the buffer chambers were collected and analyzed by HPLC method. The plasma protein binding of PU-48 was calculated from the concentration of PU-48 in PBS (free concentration) and in plasma (free + bound) according to equation: Bound (%) = (Concplasma chamber − Concbuffer chamber)/Concplasma chamber × 100%."}, "[3]": {"assay": "Stability of PU-48 in rat plasma QC samples (HPLC)", "assay_type": "in vitro ADME", "settings": "for Stability: Measured Concentration: n=3", "experimental": "HPLC Analysis and Method Validation\nThe concentration of PU -48 prototype in biological sample (feces and plasma protein binding analysis) was determined using a validated high -performance liquid chromatographic (HPLC) method in our preliminary experiment. Briefly, the analysis was performed using a HPLC consistent of model 510 pump with a model 2487 ultraviolet detector, a model Rheodyne 7725 injector, and a column oven. The analytical conditions were as follows: the detection wavelength: 293 nm; analytical column: a reversed-phase Acclaim C18 (4.6 mm × 250 mm, 5.0 µm, Dionex); column temperature: 25 C; mobile phase: acetonitrile: distilled water at a ratio of 60: 40 ( v/v); flow rate: 1 mL/min. In this study, the methods for the feces samples, were evaluated for specificity, linearity, precision, accuracy and […]\nThe intra- and inter-day precision and accuracy were determined by analyzing five replicates of QC samples (low, medium and high concentrations of 0.005, 0.08 and 1.6 µg/mL) at each QC level on the same day and on five consecutive days. The precision was expressed as the relative standard deviation (RSD) between the measured values and the targeted values. The pass c riterion was set at <15%. The accuracy was expressed as relative error (RE) between the measured values and the targeted values, which was set at < ± 15% (for the low concentration, the acceptance criterion was <20%). The stability of PU -48 in rat plasma w as determined by analyzing QC samples stored in different conditions, including room temperature and light irradiation for 24 h, post -preparation (the extracted samples were stored at 4°C for 96 h), three cycles of freeze and thaw (freezing at -20°C for 24 h and thawing at room temperature) and long-term stored at −20°C for 3 months. All of the QC samples for stability assessment were analyzed in triplicate."}, "[4]": {"settings": "extracted rat plasma samples, post−preparative (at 4 °C for 96 h), actual 0.005 µg/mL"}, "[5]": {"settings": "extracted rat plasma samples, post−preparative (at 4 °C for 96 h), actual 0.08 µg/mL"}, "[6]": {"settings": "extracted rat plasma samples, post−preparative (at 4 °C for 96 h), actual 1.6 µg/mL"}, "[7]": {"settings": "rat plasma, freeze−thawing three cycles (at −20 °C), actual 0.005 µg/mL"}, "[8]": {"settings": "rat plasma, freeze−thawing three cycles (at −20 °C), actual 0.08 µg/mL"}, "[9]": {"settings": "rat plasma, freeze−thawing three cycles (at −20 °C), actual 1.6 µg/mL"}, "[10]": {"settings": "rat plasma, freezing storage (at −20 °C for 3 months), actual 0.005 µg/mL"}, "[11]": {"settings": "rat plasma, freezing storage (at −20 °C for 3 months), actual 0.08 µg/mL"}, "[12]": {"settings": "rat plasma, light and room temperature for 24 h, actual 0.005 µg/mL"}, "[13]": {"settings": "rat plasma, light and room temperature for 24 h, actual 0.08 µg/mL"}, "[14]": {"settings": "rat plasma, light and room temperature for 24 h, actual 1.6 µg/mL"}}, "data": [{"smiles": "COC(=O)c1sc2nc3ccc(OC)cc3cc2c1N", "note": "[PU-48, Methyl 3-amino-6-methoxythieno [2,3-b] quinoline-2-carboxylate]", "values": [{"measurement": "Serum levels of sodium, chloride, or potassium", "setting": "[1]", "value": "did not change"}, {"measurement": "Accumulative Excretion Amount, urine", "setting": "[2]; 24–36 h", "value": "1058.2 ± 684.1", "unit": "ng"}, {"measurement": "Accumulative Excretion Amount, urine", "setting": "[2]; 36–48 h", "value": "1216.6 ± 716.3", "unit": "ng"}, {"measurement": "Accumulative Excretion Percentage, urine", "setting": "[2]; 36–48 h", "value": "0.0436 ± 0.0261", "unit": "%"}, {"measurement": "Concentration in Buffer (post-dialysis)", "setting": "plasma protein; added 0.25 µg/mL", "value": "12 ± 3", "unit": "ng/mL"}, {"measurement": "Concentration in Plasma (post-dialysis)", "setting": "plasma protein; added 0.25 µg/mL", "value": "127 ± 7", "unit": "ng/mL"}, {"measurement": "Protein-Binding Ratio", "setting": "plasma protein; added 0.25 µg/mL", "value": "90.70 ± 2.18", "unit": "%"}, {"measurement": "Concentration in Buffer (post-dialysis)", "setting": "plasma protein; added 1 µg/mL", "value": "47 ± 2", "unit": "ng/mL"}, {"measurement": "Concentration in Plasma (post-dialysis)", "setting": "plasma protein; added 1 µg/mL", "value": "524 ± 32", "unit": "ng/mL"}, {"measurement": "Protein-Binding Ratio", "setting": "plasma protein; added 1 µg/mL", "value": "91.06 ± 0.78", "unit": "%"}, {"measurement": "Concentration in Buffer (post-dialysis)", "setting": "plasma protein; added 4 µg/mL", "value": "194 ± 19", "unit": "ng/mL"}, {"measurement": "Concentration in Plasma (post-dialysis)", "setting": "plasma protein; added 4 µg/mL", "value": "2128 ± 166", "unit": "ng/mL"}, {"measurement": "Protein-Binding Ratio", "setting": "plasma protein; added 4 µg/mL", "value": "90.83 ± 1.17", "unit": "%"}, {"measurement": "fraction unbound at 24 h", "setting": "plasma protein; rat, plasma, rats, overall statement", "value": "< 0.1"}, {"measurement": "Stability: Accuracy (RE)", "setting": "[3]; [4]", "value": "−8.43", "unit": "%"}, {"measurement": "Stability: Measured Concentration", "setting": "[3]; [4]", "value": "0.0046 ± 0.0006", "unit": "µg/mL"}, {"measurement": "Stability: Accuracy (RE)", "setting": "[3]; [5]", "value": "−10.23", "unit": "%"}, {"measurement": "Stability: Measured Concentration", "setting": "[3]; [5]", "value": "0.0718 ± 0.0019", "unit": "µg/mL"}, {"measurement": "Stability: Accuracy (RE)", "setting": "[3]; [6]", "value": "−3.08", "unit": "%"}, {"measurement": "Stability: Measured Concentration", "setting": "[3]; [6]", "value": "1.5507 ± 0.0904", "unit": "µg/mL"}, {"measurement": "Stability: Accuracy (RE)", "setting": "[3]; [7]", "value": "−7.33", "unit": "%"}, {"measurement": "Stability: Measured Concentration", "setting": "[3]; [7]", "value": "0.0046 ± 0.0004", "unit": "µg/mL"}, {"measurement": "Stability: Accuracy (RE)", "setting": "[3]; [8]", "value": "−3.43", "unit": "%"}, {"measurement": "Stability: Measured Concentration", "setting": "[3]; [8]", "value": "0.0773 ± 0.0055", "unit": "µg/mL"}, {"measurement": "Stability: Accuracy (RE)", "setting": "[3]; [9]", "value": "−8.49", "unit": "%"}, {"measurement": "Stability: Measured Concentration", "setting": "[3]; [9]", "value": "1.4641 ± 0.0840", "unit": "µg/mL"}, {"measurement": "Stability: Accuracy (RE)", "setting": "[3]; [10]", "value": "−9.37", "unit": "%"}, {"measurement": "Stability: Measured Concentration", "setting": "[3]; [10]", "value": "0.0045 ± 0.0002", "unit": "µg/mL"}, {"measurement": "Stability: Accuracy (RE)", "setting": "[3]; [11]", "value": "−6.48", "unit": "%"}, {"measurement": "Stability: Measured Concentration", "setting": "[3]; [11]", "value": "0.0748 ± 0.0058", "unit": "µg/mL"}, {"measurement": "Stability: Accuracy (RE)", "setting": "[3]; rat plasma, freezing storage (at −20 °C for 3 months), actual 1.6 µg/mL", "value": "−10.15", "unit": "%"}, {"measurement": "Stability: Accuracy (RE)", "setting": "[3]; [12]", "value": "−9.278", "unit": "%"}, {"measurement": "Stability: Measured Concentration", "setting": "[3]; [12]", "value": "0.0045 ± 0.0003", "unit": "µg/mL"}, {"measurement": "Stability: Accuracy (RE)", "setting": "[3]; [13]", "value": 9.07, "unit": "%"}, {"measurement": "Stability: Measured Concentration", "setting": "[3]; [13]", "value": "0.0873 ± 0.0011", "unit": "µg/mL"}, {"measurement": "Stability: Accuracy (RE)", "setting": "[3]; [14]", "value": "−10.63", "unit": "%"}, {"measurement": "Stability: Measured Concentration", "setting": "[3]; [14]", "value": "1.4299 ± 0.0296", "unit": "µg/mL"}]}]}
